# Results taken from ChEMBL document CHEMBL1201862, “PubChem BioAssay data set” (2004).
# Active and inactive are the calls of the source.
# How the values were obtained:
# [1] = tested on: Escherichia coli; test: microbe, parasite or virus in culture
# [2] = tested on: HeLa; test: HeLa cell cytotoxicity, dose response, cytotoxicity control for MITF activator project, CellTiter-Glo luminescence, cherry-pick samples (AID 540259); assay type: functional, cell-based; settings: Homo sapiens
# [3] = biological target: Mu-type opioid receptor (Homo sapiens, UniProt P35372); assay type: functional, cell-based;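 further: U2OS cells with beta-arrestin recruitment to OPRM1 by beta-gal complementation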
# Chain of Mu-type opioid receptor (P35372 whole entry): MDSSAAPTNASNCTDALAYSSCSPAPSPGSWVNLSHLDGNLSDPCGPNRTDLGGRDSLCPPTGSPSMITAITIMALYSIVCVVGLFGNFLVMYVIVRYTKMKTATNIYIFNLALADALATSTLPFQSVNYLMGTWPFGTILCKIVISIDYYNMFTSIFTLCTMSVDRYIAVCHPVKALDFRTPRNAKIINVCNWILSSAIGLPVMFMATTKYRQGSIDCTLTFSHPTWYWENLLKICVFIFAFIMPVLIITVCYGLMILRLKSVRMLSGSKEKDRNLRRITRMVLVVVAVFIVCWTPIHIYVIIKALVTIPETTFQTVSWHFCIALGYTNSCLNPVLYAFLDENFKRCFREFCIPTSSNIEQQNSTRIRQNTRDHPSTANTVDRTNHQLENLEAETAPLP
# [4] = biological target: 5-hydroxytryptamine receptor 2A (Mus musculus, UniProt P35363); assay type: functional, cell-based;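 further: CHO-K1 cells with tagged receptor and beta-arrestin; agonist potency measured as compound-induced activation of the receptor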
# Chain of 5-hydroxytryptamine receptor 2A (P35363 whole entry): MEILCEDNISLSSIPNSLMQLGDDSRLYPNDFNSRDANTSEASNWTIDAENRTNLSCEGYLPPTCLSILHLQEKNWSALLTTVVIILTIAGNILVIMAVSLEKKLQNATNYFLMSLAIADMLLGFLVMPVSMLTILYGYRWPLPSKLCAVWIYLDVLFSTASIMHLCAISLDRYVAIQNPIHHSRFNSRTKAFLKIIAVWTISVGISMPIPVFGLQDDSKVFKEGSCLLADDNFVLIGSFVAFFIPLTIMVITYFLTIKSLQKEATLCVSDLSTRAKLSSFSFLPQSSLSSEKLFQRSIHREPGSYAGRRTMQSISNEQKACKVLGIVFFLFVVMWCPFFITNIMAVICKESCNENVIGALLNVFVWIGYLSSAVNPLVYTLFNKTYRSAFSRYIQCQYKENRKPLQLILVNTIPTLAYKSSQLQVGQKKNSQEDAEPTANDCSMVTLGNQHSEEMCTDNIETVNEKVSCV
# [5] = inhibitors of intracellular T. cruzi replication, confirmation, NIH3T3 host cells, beta-gal luminescence (AID 2044); assay type: functional, cell-based;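 further: intracellular parasites grown in NIH/3T3 mouse fibroblasts as host cells; luminescent beta-galactosidase reporter signal from transgenic T. cruzi replicating inside host cells; inhibitors lower the luminescence signal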
# [6] = cytotoxicity in HPDE-C7 cells, cell-based, fluorescence, HTS (AID 430); assay type: functional; settings: Homo sapiens
# [7] = growth suppression of beta-catenin-knockout colon cells, dose response, cell-based, HCT116, human colon tumor (AID 1045); assay type: functional;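 further: HCT116 colon tumor cells with beta catenin knocked out; cells exposed to compound for 60 hours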
# [8] = cytotoxicity toward NIH3T3 fibroblasts, dose response, counter-screen, cell-based, ATP luminescence, mouse fibroblasts (AID 2010); assay type: functional;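 further: cells exposed to compound for about 90 hours before reading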
# [9] = tested on: Vero; test: Vero cell cytotoxicity, cytotoxicity control for flavivirus capping enzyme inhibitors (AID 588742); assay type: functional; settings: Chlorocebus sabaeus
# [10] = growth suppression of PTEN-null colon cells, dose response, cell-based, HCT116 PTEN knockout (AID 1047); assay type: functional;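 further: HCT116 colon tumor cells with PTEN knocked out; cells exposed to compound for 60 hours before readout; potency for loss of cell viability measured by luminescence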
# [11] = cytotoxicity in KRAS-transformed pancreatic duct cells, primary screen, cell-based, fluorescence, HTS (AID 431); assay type: functional; settings: Homo sapiens;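 further: cell line used: HPDE-C7K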
# [12] = biological target: FAD-linked sulfhydryl oxidase ALR (Homo sapiens, UniProt P55789); test: inhibitors of human ALR sulfhydryl oxidase, dose response, biochemical, H2O2 detection, luminescence, cherry-pick (AID 493248)
# Chain of FAD-linked sulfhydryl oxidase ALR (P55789 whole entry): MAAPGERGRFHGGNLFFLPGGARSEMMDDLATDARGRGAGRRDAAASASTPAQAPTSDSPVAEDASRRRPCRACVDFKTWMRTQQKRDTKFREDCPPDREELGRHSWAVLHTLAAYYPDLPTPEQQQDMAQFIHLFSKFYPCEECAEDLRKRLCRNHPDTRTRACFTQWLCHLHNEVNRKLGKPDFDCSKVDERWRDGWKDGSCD
# [13] = biological target: T1, Microphthalmia-associated transcription factor (Homo sapiens, UniProt O75030); test: TRPM1 promoter luciferase signal decrease, dose response, MITF inhibitor project, cell-based, SK-MEL-5, cherry-picked, set 3 (AID 493073); assay type: functional
# T1 sequence (O75030 whole entry): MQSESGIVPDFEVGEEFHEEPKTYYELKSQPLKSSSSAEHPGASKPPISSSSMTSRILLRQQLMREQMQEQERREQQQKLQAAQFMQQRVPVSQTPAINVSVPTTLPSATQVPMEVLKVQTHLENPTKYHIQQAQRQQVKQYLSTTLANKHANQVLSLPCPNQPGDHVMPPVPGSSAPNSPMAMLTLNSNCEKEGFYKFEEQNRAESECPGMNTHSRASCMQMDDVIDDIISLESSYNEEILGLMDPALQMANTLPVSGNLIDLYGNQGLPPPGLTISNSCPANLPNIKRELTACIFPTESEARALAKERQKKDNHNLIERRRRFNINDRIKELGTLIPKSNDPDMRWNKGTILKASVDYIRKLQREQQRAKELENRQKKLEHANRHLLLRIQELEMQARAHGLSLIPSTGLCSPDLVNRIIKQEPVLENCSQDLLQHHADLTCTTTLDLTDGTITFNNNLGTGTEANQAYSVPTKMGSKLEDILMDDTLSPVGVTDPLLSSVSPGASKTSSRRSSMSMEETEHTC
# [14] = control 3'UTR Renilla luciferase suppression, dose response, counter-screen for Shn3 inhibitor project, cell-based, Clone20-Shn3RL, cherry-picked (AID 624133); assay type: functional
# [15] = HepG2 cell cytotoxicity, dose response, cytotoxicity control for Shn3 inhibitor project, CellTiter-Glo, cherry-picked (AID 624134); assay type: functional, cell-based
# [16] = Shn3 3'UTR reporter inhibitors, dose response, cell-based, Clone20 osteoblasts, firefly luciferase, cherry-picked (AID 624132); assay type: functional;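 further: firefly luciferase luminescence from reporter carrying the Shn3 3'UTR in osteoblasts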
structure (smiles),measurement,setting,value
CC1CCc2cc(F)cc3c(=O)c(C(=O)O)cn1c23 (stereo not given) [FLUMEQUINE],AC50,[1],1.99 µM (active)
CCc1ccc(NC(=O)c2nnc(O)c3ccccc23)cc1,AC50,[2],> 350 µM (inactive)
CC(=O)c1cccc(OCC(O)CNCC2COc3ccccc3O2)c1 (stereo not given),EC50,[3],92.5 µM (inactive)
same,EC50,[4],2.85 µM (active)
CN1CCc2c(C#N)c(N3CCCCC3)nc(NCc3ccccc3)c2C1,EC50,[5],0.639 µM (active)
same,EC50,[6],16.8 µM (active)
same,EC50,[7],13.5 µM (active)
same,EC50,[8],> 60 µM (not active)
same,CC50,[9],> 40 µM (active)
same,EC50,[10],17.8 µM (active)
same,EC50,[11],2.44 µM (active)
Oc1c(Br)cc(C2NC(c3ccccc3)=NO2)cc1Br (stereo not given),AC50,[1],20.2 µM (active)
Nc1ccc2oc(-c3cccs3)nc2c1,AC50,[2],168 µM (active)
same,AC50,[12],0.155 µM (active)
CCSc1nnc(NC(=O)NC2CCCCC2)s1,AC50,[2],136 µM (active)
CCc1ccc(N2CC(C(=O)N3CCN(c4ccccn4)CC3)CC2=O)cc1 (stereo not given),AC50,[1],29.9 µM (active)
CC1CCC/C=C/C(=O)c2c(O)cc(O)cc2CC(=O)O1 (stereo not given),AC50,[13],5.79 µM (active)
same,AC50,[14],13.6 µM (active)
same,AC50,[15],> 70 µM (inactive)
same,AC50,[16],4.12 µM (active)
